Measurements as given in patent US11918626B2, “Vasointestinal peptide receptor inhibitors for enhancement of gastrointestinal health” (New York University, priority 2019, dated 2024).

How the values were obtained:
hM3Dq = target: T1, hM3Dq (Homo sapiens, UniProt P20309, A239G/Y149C); assay: VIPen activation with activating DREADD (hM3Dq), 24 h; format: in vivo, mice; conditions: following VIPen activation, versus vehicle
T1 construct: host or cells: VIP-producing enteric neurons of Vip-IRES-Cre x hM3Dq fl-stop-fl transgenic mice (in vivo)
T1 sequence (P20309 whole entry Y149C/A239G): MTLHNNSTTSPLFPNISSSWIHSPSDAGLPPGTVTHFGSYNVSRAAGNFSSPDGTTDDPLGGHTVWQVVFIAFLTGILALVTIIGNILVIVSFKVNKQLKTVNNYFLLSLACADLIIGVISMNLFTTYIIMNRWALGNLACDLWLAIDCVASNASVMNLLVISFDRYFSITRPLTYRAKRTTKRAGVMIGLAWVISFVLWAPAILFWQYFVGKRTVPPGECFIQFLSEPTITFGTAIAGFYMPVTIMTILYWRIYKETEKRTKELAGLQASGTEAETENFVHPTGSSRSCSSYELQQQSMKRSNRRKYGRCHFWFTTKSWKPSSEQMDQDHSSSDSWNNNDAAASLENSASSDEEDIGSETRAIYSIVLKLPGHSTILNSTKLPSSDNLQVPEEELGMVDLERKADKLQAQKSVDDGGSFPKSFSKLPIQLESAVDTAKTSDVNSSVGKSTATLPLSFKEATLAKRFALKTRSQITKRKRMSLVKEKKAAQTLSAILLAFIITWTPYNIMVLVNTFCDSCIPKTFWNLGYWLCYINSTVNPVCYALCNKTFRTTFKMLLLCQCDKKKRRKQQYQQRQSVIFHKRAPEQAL
Experimental: (§1) To perform chemogenetic activation or inhibition of VIPen, we bred VIP^IRES-Cre homozygous mice to hM3Dq^fl-stop-fl mice (DREADD for activation) or hM4Di^fl-stop-fl bp-mice (DREADD for inhibition), generating VIP^IRES-Cre hM3Dq^fl-stop-fl (VIPen activation) and VIP^IRES-Cre hM3Dq^fl-stop-flhM4Di^fl-stop-fl mice (VIPen inhibition). To perform 24 h activation of the DREADDs, mice were treated with Clozapine-N-Oxide (CNO, 1 mg/Kg intraperitoneally, TOCRIS) each 12 h. […] To perform activation of the DREADDs during Citrobacter rodentium infection, mice were treated daily with CNO (1 mg/Kg, intraperitoneally) from day 1 to day 4 after infection. […]
(§2) Live/dead fixable blue (ThermoFisher) or DAPI (ThermoFisher) were used to exclude dead cells. […] Flow cytometric analysis was performed on an LSR II (BD Biosciences) or an Aria II (BD Biosciences) and analyzed using FlowJo software version 10 (Tree Star).
(§3) TRNA isolation of ileal epithelial cells was performed using TRIzol following manufacturer's instructions (Invitrogen) followed by DNase I (Qiagen) treatment and cleanup with RNeasy MinElute kit (Qiagen) following manufacturer protocols. cDNA was generated using SuperScript™ IV First-Strand Synthesis System (ThermoFisher). […] Quantitative PCR was performed using the Hot Start-IT SYBRGreen (Affymetrix) on the Roche real-time PCR system (Roche 480). […]

C. rodentium [1] = assay: C. rodentium infection of Vip-IRES-Cre hM3Dq mice (VIPen activation); format: in vivo, Citrobacter rodentium; conditions: for bacterial dissemination (translocation) induced by VIPen activation / mortality induced by VIPen activation: 250 pg/mouse/day, C. rodentium-infected hM3Dq mice with VIPen activation
Experimental: (§4) To perform chemogenetic activation or inhibition of VIPen, we bred VIP^IRES-Cre homozygous mice to hM3Dq^fl-stop-fl mice (DREADD for activation) or hM4Di^fl-stop-fl bp-mice (DREADD for inhibition), generating VIP^IRES-Cre hM3Dq^fl-stop-fl (VIPen activation) and VIP^IRES-Cre hM3Dq^fl-stop-flhM4Di^fl-stop-fl mice (VIPen inhibition). To perform 24 h activation of the DREADDs, mice were treated with Clozapine-N-Oxide (CNO, 1 mg/Kg intraperitoneally, TOCRIS) each 12 h. […] To perform activation of the DREADDs during Citrobacter rodentium infection, mice were treated daily with CNO (1 mg/Kg, intraperitoneally) from day 1 to day 4 after infection.
(§5) C. rodentium strain DBS100 (ATCC51459; American Type Culture Collection) was grown at 37° C. in LB broth to OD600 reading between 0.5 and 0.7. VIP^IRES-CrehM3Dq^fl-stop-fl (VIPen activation) and C57BL/6 mice were inoculated with 200 μl of a bacterial suspension (2×10^9 CFU) by oral gavage. VIP^IRES-Cre hM3Dq^fl-stop-flhM4Di^fl-stop-fl mice (VIPen inhibition) were inoculated with 200 μl of a bacterial suspension (4×10^10 CFU) by oral gavage. For DREADD experiments, CNO treatment started at 1 day post-infection (d.p.i.) until 4 d.p.i. Mice were followed the next 12 days post-infection (d.p.i.) to measure survival rate. At 9 d.p.i. fecal pellets were collected and the mice dissected to harvest spleen and liver. Samples were weighted and minced on sterile deionized water with Triton 0.1% and filtered on a 70 μm cell strainer. The filtered samples were used to measure C. rodentium burden with serial dilutions (triplicates) on MacConkey agar plates.

ILC3 = assay: Pilot experiments with CNO in C57BL/6 mice; format: in vivo; conditions: 1 mg/Kg intraperitoneally each 12 h, C57BL/6 mice without DREADD, data not shown
hM4Di = target: T2, hM4Di (Homo sapiens, UniProt P08173, A203G/Y113C); assay: VIPen inhibition with inhibitory DREADD (hM4Di), 24 h; format: in vivo, mice; conditions: versus vehicle
T2 construct: host or cells: VIP-producing enteric neurons of Vip-IRES-Cre x hM4Di fl-stop-fl transgenic mice (in vivo)
T2 sequence (P08173 1-479 Y113C/A203G): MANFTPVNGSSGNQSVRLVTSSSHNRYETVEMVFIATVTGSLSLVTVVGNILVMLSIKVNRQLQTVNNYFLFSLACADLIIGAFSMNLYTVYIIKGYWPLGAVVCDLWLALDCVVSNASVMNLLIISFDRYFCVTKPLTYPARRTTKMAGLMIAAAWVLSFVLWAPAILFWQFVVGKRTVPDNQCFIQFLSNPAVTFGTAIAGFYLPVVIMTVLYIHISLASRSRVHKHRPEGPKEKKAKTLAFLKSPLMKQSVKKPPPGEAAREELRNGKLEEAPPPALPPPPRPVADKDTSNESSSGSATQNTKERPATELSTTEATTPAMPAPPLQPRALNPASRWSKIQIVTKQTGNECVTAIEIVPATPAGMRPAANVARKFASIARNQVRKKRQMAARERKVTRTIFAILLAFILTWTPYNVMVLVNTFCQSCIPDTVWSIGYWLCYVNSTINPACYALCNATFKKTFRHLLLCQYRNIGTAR
Experimental: as §1, §2, §3

C. rodentium [2] = assay: C. rodentium infection of Vip-IRES-Cre hM4Di mice (VIPen inhibition); format: in vivo, Citrobacter rodentium; conditions: 1 mg/Kg daily 1-4 d.p.i., 4×10^10 CFU, 9 d.p.i., mice positive/total
Experimental: as §4
as §5, with “Samples were weighted and minced on sterile deionized water with Triton 0.1% and filtered on a 70 μm cell strainer. The filtered samples were used to measure C. rodentium burden with serial dilutions (triplicates) on MacConkey agar plates.” left out

VIPR2 = target: T3, VIPR2 (Mus musculus, UniProt P41588); assay: ILC3 in vitro cell culture with VIPR2 ligands, IL-22 and Sca-1 by flow cytometry; format: cell-based, mice; conditions: IL-23 100 pg/mL, 12 h, different concentrations of ligand
T3 construct: endogenous in cells; host or cells: primary CCR6+ ILC3 sorted from small-intestine lamina propria of C57BL/6 mice
T3 sequence (P41588 23-437): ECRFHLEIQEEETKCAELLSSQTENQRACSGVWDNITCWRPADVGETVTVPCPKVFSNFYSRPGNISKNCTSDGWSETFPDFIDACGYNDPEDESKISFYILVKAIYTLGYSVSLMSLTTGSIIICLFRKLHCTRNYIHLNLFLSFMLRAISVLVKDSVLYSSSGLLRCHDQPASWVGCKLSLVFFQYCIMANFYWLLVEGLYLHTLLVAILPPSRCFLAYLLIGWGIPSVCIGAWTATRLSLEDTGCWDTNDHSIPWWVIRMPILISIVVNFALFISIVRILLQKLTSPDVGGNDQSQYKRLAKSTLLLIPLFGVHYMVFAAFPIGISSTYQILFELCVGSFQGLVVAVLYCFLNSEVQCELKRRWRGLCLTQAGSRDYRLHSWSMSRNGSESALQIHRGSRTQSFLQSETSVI
Experimental: CCR6^+ and CCR6^neg ILC3 (DAPI^negCD3^negCD11c^negCD14^negCD19^negTCRβ^negTCRγ^negNK1.19KLRG1^negCD127^+CD90.2^+) were isolated from small intestine LPLs of C57BL/6 mice using the ARIA II FACS Sorter (BD Biosciences). ILC3 were cultured at 37° C. in flat bottom 96 well plates (10^4 cells/well) in RPMI supplemented with 10% heat-inactivated FBS (Hyclone), 50 U penicillin-streptomycin (Hyclone), 2 mM glutamine (Hyclone), 10 mM HEPES (Hyclone), 1 mM sodium pyruvate (Hyclone) and 50 μM β-mercaptoethanol (Gibco). ILC3 were stimulated with IL-23 (100 pg/mL, R&D systems) and/or VIPR2 ligands (BAY-559837: 1-100 nM, and VIP: 1 nM, […]), washed, incubated in complete media in the presence of Golgi Plug (BD Bioscience) for 4 h (37° C.), and stained for membrane extracellular markers in Staining Buffer (PBS FBS2% EDTA 5 mM) and for intracellular markers using Cytofix/Cytoperm buffer set following manufacturer's protocol (BD Biosciences). Acquisition of cytometric parameters was performed on an LSRII (BD Biosciences). All data were analyzed using FlowJo Software Version 10 (Tree Star).
as §2

[3] = 1 mg/Kg daily 1-4 d.p.i., 2×10^9 CFU, 9 d.p.i., mice positive/total
[4] = listed as recombinant murine IL-22

C[N+]1([O-])CCN(C2=Nc3cc(Cl)ccc3Nc3ccccc32)CC1 [CNO, Clozapine-N-oxide]
IL-22+ cells among the CCR6+ ILC3 (hM3Dq): fewer
RegIIIγ mRNA in IECs (hM3Dq): lower
Positive for C. rodentium: liver (C. rodentium [1]; [3]): 9/9
Positive for C. rodentium: spleen (C. rodentium [1]; [3]): 9/9
ILC3 function (ILC3): does not affect
RegIIIγ mRNA expression in the IECs (hM4Di; after VIPen inhibition, 24 h): increased
frequency of IL-22-producing CCR6+ ILC3 (hM4Di; ileum, 24 h following VIPen inhibition): higher frequency
Positive for C. rodentium: liver (C. rodentium [2]): 1/7
Positive for C. rodentium: spleen (C. rodentium [2]): 1/7

vasoactive intestinal peptide [VIP]
IL-23-induced Sca-1 expression on CCR6+ ILC3 (VIPR2): does not modulate

B1: rmIL-22: recombinant murine IL-22 (protein, UniProt Q9JJY9 34-179, looked up)
Interleukin-22: LPVNTRCKLEVSNFQQPYIVNRTFMLAKEASLADNNTDVRLIGEKLFRGVSAKDQCYLMKQVLNFTLEDVLLPQSDRFQPYMQEVVPFLTKLSNQLSSCHISGDDQNIQKNVRRLKETVKKLGESGEIKAIGELDLLFMSLRNACV
bacterial dissemination (translocation) induced by VIPen activation (C. rodentium [1]): protects against increase
mortality induced by VIPen activation (C. rodentium [1]): protects against increase
bacterial dissemination (translocation) induced by VIPen activation (C. rodentium [1]; [4]): reversed the effect
mortality induced by VIPen activation (C. rodentium [1]; [4]): reversed the effect
